Experimental data as given in BindingDB's records for PubMed 33548635 (University of Aveiro, 2021).
pIC50: −log10 of the molar value.

Experiments:
[1] = target: T1, Amyloid-beta precursor protein (Homo sapiens, UniProt P05067); test: Inhibition of amyloid beta 40 secretion transfected in human H4 cells incubated for 20 to 24 hrs by LPECL assay
[2] = target: T1, Amyloid-beta precursor protein; test: Inhibition of amyloid beta 42 secretion transfected in human H4 cells incubated for 20 to 24 hrs by LPECL assay

T1 sequence (P05067 whole entry): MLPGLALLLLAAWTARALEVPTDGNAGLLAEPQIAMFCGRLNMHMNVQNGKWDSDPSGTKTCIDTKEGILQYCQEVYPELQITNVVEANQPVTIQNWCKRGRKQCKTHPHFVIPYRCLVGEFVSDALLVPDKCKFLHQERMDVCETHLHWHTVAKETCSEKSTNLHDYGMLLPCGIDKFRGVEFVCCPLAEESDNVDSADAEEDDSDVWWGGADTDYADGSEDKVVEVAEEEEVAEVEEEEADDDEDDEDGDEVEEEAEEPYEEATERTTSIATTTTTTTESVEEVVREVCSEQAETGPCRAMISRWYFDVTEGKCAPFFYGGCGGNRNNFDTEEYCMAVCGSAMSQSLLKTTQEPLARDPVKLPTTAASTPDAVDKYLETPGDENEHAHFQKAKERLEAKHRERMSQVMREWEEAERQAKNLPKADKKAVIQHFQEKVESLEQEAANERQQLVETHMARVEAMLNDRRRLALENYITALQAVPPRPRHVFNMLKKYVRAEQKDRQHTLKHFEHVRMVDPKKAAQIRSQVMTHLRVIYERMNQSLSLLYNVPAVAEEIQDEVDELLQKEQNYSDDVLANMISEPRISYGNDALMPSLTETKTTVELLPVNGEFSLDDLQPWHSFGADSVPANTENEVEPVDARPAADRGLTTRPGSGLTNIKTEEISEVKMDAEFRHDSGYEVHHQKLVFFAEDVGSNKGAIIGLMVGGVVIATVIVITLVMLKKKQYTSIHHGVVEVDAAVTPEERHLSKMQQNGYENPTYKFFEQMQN

SMILES | pIC50 [1] | pIC50 [2]
COc1cc(/C=C/c2cc(/C=C/c3ccc(O)c(OC)c3)n(Cc3ccccc3)n2)ccc1O | 4.94 | 4.82
COc1cc(/C=C/c2cc(/C=C/c3ccc(OCC(=O)O)c(OC)c3)on2)ccc1OCC(=O)O | 4.85 | < 4.40
COc1cc(/C=C/c2cc(/C=C/c3ccc(O)c(OC)c3)n(-c3cccc([N+](=O)[O-])c3)n2)ccc1O | 4.82 | 4.85
COc1cc(/C=C/c2cc(/C=C/c3ccc(O)c(OC)c3)n(C)n2)ccc1O | 4.98 | 5.05
COc1cc(/C=C/c2cc(/C=C/c3ccc(O)c(OC)c3)n(CCO)n2)ccc1O | 4.75 | 4.76
COc1cc(/C=C/c2cc(/C=C/c3ccc(OCC(=O)OC(C)(C)C)c(OC)c3)on2)ccc1OCC(=O)OC(C)(C)C | < 4.40 | < 4.40
COc1cc(/C=C/c2cc(/C=C/c3ccc(O)c(OC)c3)n(-c3ccccc3)n2)ccc1O | 4.95 | 4.85
COc1cc(/C=C/c2cc(/C=C/c3ccc(O)c(OC)c3)[nH]n2)ccc1O [4-(2-(5-(4-hydroxy-3-methoxystyryl)-1H-pyrazol-3-yl)vinyl)-2-methoxyphenol] | 5.01 | 5.06

Molecules with a higher pIC50 [1], results first:

pIC50 [1] | pIC50 [2] | SMILES
5.06 | 5.30 | COc1cc(/C=C/c2cc(/C=C/c3ccc(O)c(OC)c3)n(-c3ccc(C)cc3)n2)ccc1O
5.13 | 5.17 | COc1cc(/C=C/c2cc(/C=C/c3ccc(O)c(OC)c3)on2)ccc1O [4-((E)-2-{3-[(E)-2-(4-hydroxy-3-methoxyphenyl)vinyl]isoxazol-5-yl}vinyl)-2-methoxyphenol]
5.16 | 5.36 | COc1cc(/C=C/c2cc(/C=C/c3ccc(O)c(OC)c3)n(-c3ccc(C(C)C)cc3)n2)ccc1O
5.20 | 5.46 | COc1cc(/C=C/c2cc(/C=C/c3ccc(O)c(OC)c3)n(-c3cc(Cl)cc(Cl)c3)n2)ccc1O
5.21 | – | COc1cc(/C=C/c2cc(/C=C/c3ccc(O)c(OC)c3)n(-c3ccc([N+](=O)[O-])cc3)n2)ccc1O
5.27 | 5.32 | COc1cc(/C=C/c2cc(/C=C/c3ccc(O)c(OC)c3)n(-c3ccc(Cl)nn3)n2)ccc1O
